Test results reported in ChEMBL document CHEMBL1201862, “PubChem BioAssay data set” (2004).
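Dose response: 5 concentrations. Exposure: 48 h. Format: 96-well plates. Endpoint: linear interpolation; highest concentration if not reached. GI50 marks 50% less growth.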 Activity calls are given as the source filed them. No stated cut-off is given here; in the data, active = GI50 up to about 1.1 µM and inactive = higher.

Experiments:
Experiment in all cases: growth of human tumour cells (NCI), 48 h
[1] = system: SN12C
[2] = system: U-251
[3] = system: SK-OV-3
[4] = system: OVCAR-8
[5] = system: MCF7
[6] = system: M14
[7] = system: COLO 205
[8] = system: CAKI-1
[9] = system: NCI-H522
[10] = system: 786-0
[11] = system: CCRF-CEM
[12] = system: HCT-116
[13] = system: MOLT-4
[14] = system: Hs-578T
[15] = system: HCT-15
[16] = system: A549
[17] = system: OVCAR-3
[18] = system: MDA-MB-435
[19] = system: OVCAR-5
[20] = system: SNB-19
[21] = system: MDA-MB-231
[22] = system: NCI-H460
[23] = system: UO-31
[24] = system: BT-549
[25] = system: SK-MEL-28
[26] = system: NCI-H23
[27] = system: T47D
[28] = system: UACC-257
[29] = system: UACC-62
[30] = system: SK-MEL-5
[31] = system: EKVX
[32] = system: NCI-H226
[33] = system: OVCAR-4
[34] = system: PC-3
[35] = system: SF-539
[36] = system: SF-295
[37] = system: TK-10
[38] = system: HOP-92
[39] = system: ACHN
[40] = system: SNB-75
[41] = system: A498
[42] = system: KM12
[43] = system: MDA-N
[44] = system: DU-145
[45] = system: SF-268
[46] = system: Malme-3M
[47] = system: SW-620
[48] = system: HOP-62
[49] = system: HT-29
[50] = system: SK-MEL-2
[51] = system: HL-60
[52] = system: IGROV-1
[53] = system: LOX IMVI
[54] = system: HCC 2998
[55] = system: RXF 393
[56] = system: SR
[57] = system: K562
[58] = system: RPMI-8226
[59] = system: NCI/ADR-RES

Measured: GI50

CCOC(=O)c1cnn2c1ncc1c(=O)n(NC(N)=O)ccc12
inactive: [1] > 100 µM | [2] > 100 µM | [3] > 100 µM | [4] > 100 µM | [5] > 100 µM | [6] > 100 µM | [7] > 100 µM | [8] > 100 µM | [9] > 100 µM | [10] > 100 µM | [11] > 100 µM | [12] > 100 µM | [13] > 100 µM | [14] > 100 µM | [16] > 100 µM | [17] > 100 µM | [18] > 100 µM | [19] > 100 µM | [20] > 100 µM | [21] > 100 µM | [22] > 100 µM | [23] > 100 µM | [24] 94.8 µM | [25] > 100 µM | [26] > 100 µM | [27] > 100 µM | [28] > 100 µM | [29] > 100 µM | [30] > 100 µM | [31] > 100 µM | [32] > 100 µM | [33] > 100 µM | [34] > 100 µM | [35] > 100 µM | [36] > 100 µM | [37] > 100 µM | [38] > 100 µM | [39] > 100 µM | [40] > 100 µM | [41] > 100 µM | [42] > 100 µM | [43] > 100 µM | [44] > 100 µM | [45] > 100 µM | [46] > 100 µM | [47] > 100 µM | [48] > 100 µM | [49] > 100 µM | [50] > 100 µM | [51] > 100 µM | [52] > 100 µM | [53] > 100 µM
> 100 µM: [15]

O=C(CC(=O)n1nc(-c2ccccc2)c(/N=N/c2ccccc2C(=O)O)c1-c1ccccc1)Nc1ccc(Cl)cc1
26.9 µM: [15]
inactive: [2] 19.2 µM | [4] 36.8 µM | [5] 30.3 µM | [54] 34.4 µM | [6] 55.8 µM | [7] 50.7 µM | [10] 36.1 µM | [12] 17.9 µM | [13] 5.57 µM | [14] 35.6 µM | [16] 34.1 µM | [19] 43 µM | [20] 21.7 µM | [21] 33.3 µM | [22] 19.2 µM | [23] 15.5 µM | [24] 24.7 µM | [25] 52.8 µM | [55] 7.66 µM | [26] 20.5 µM | [27] 9.77 µM | [28] 32 µM | [29] 77.1 µM | [30] 42 µM | [31] 30.7 µM | [32] 30.6 µM | [34] 27.5 µM | [56] 11.6 µM | [57] 25.6 µM | [37] > 100 µM | [38] 5.9 µM | [39] 33.5 µM | [40] 27.9 µM | [42] > 100 µM | [43] 36.1 µM | [46] 75 µM | [47] 63.8 µM | [48] 19.6 µM | [49] 34.2 µM | [58] 20.4 µM | [50] 29.5 µM | [51] 10.2 µM | [52] 1.5 µM

COC(=O)C1=COC2OC3C(C(C)O)C(=O)OC34C=CC1C24 (stereo not drawn)
31.9 µM: [15]
inactive: [1] 50.1 µM | [2] 60 µM | [3] 59.7 µM | [4] 20.9 µM | [5] 40.1 µM | [54] > 100 µM | [6] 55.6 µM | [7] 40.6 µM | [8] 55 µM | [9] 14.8 µM | [10] 53.8 µM | [11] 14.9 µM | [12] 47.5 µM | [13] 24.3 µM | [14] 34 µM | [16] > 100 µM | [17] 29.5 µM | [18] 31.6 µM | [19] 51.9 µM | [20] 51.5 µM | [21] > 100 µM | [22] 49.2 µM | [23] 74.6 µM | [24] 40.4 µM | [25] 31 µM | [26] 80.9 µM | [27] 39.4 µM | [28] > 100 µM | [29] 29.3 µM | [30] 57 µM | [31] 81.7 µM | [32] > 100 µM | [33] > 100 µM | [34] 85.5 µM | [35] 30.1 µM | [36] 56.6 µM | [57] 32.2 µM | [37] 61.2 µM | [38] 55.7 µM | [39] 44.7 µM | [40] 35.8 µM | [41] 98.6 µM | [42] 37.2 µM | [43] 29.6 µM | [44] 57.1 µM | [45] 49 µM | [46] 36.6 µM | [47] 29.4 µM | [59] 25 µM | [49] 44 µM | [58] 29.1 µM | [50] 31 µM | [51] 15.5 µM | [52] 71.6 µM | [53] 47.3 µM

COCOc1cc(OC)ccc1C/C(=N/O)C(=O)OC
inactive: [1] > 100 µM | [2] > 100 µM | [3] > 100 µM | [4] > 100 µM | [5] > 100 µM | [54] > 100 µM | [6] > 100 µM | [7] > 100 µM | [8] > 100 µM | [9] > 100 µM | [10] > 100 µM | [11] > 100 µM | [12] > 100 µM | [13] > 100 µM | [14] > 100 µM | [16] > 100 µM | [17] > 100 µM | [18] > 100 µM | [19] > 100 µM | [20] > 100 µM | [21] > 100 µM | [22] > 100 µM | [23] > 100 µM | [24] > 100 µM | [25] > 100 µM | [55] > 100 µM | [26] > 100 µM | [27] > 100 µM | [28] > 100 µM | [29] > 100 µM | [30] > 100 µM | [31] > 100 µM | [32] > 100 µM | [33] > 100 µM | [34] > 100 µM | [35] > 100 µM | [36] > 100 µM | [57] > 100 µM | [37] > 100 µM | [39] > 100 µM | [40] 31.8 µM | [42] > 100 µM | [43] > 100 µM | [44] > 100 µM | [45] > 100 µM | [46] > 100 µM | [47] > 100 µM | [59] > 100 µM | [48] > 100 µM | [49] > 100 µM | [50] > 100 µM | [51] > 100 µM | [52] > 100 µM | [53] > 100 µM
> 100 µM: [15]
